Laboratory results as given in PubChem BioAssay (NCI).
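1) Cells in 96-well plates. 2) Compound, 48 h, 5 concentrations. 3) Linear interpolation between surrounding doses. 4) Unreached endpoint = highest concentration. Definition used: TGI = concentration required for complete inhibition of growth.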

Test system: P388 leukemia
Experiment: NCI tumour cell line growth inhibition, 48 h

| Compound | TGI [µM] |
| --- | --- |
| CNC(=O)c1cccc2c(Nc3ccc(NS(C)(=O)=O)cc3OC)c3cccc(C)c3nc12 | < 0.0384 |
| COc1cc(O)c2c(c1)C(=O)c1cc3c(c(O)c1C2=O)C(OC1OC(C)C(O)C(O)C1OC)C(OC)C(C)(O)C3=O (configuration not stated) | 25.2 |
